This note sets out measurements from patent publication US20250319053A1, “INHIBITORS OF THE PEPTIDYL-PROLYL CIS/TRANS ISOMERASE (PIN1), COMBINATIONS AND USES THEREOF” (DANA-FARBER CANCER INSTITUTE, INC., priority 2021, published 2025).

Assay [1] concerns patient-derived PDAC tumors in PDTX mice. Put plainly: Patient-derived tumor orthotopic xenograft (PDTX) mouse model. In kind it is in vivo. From the text:
Allelic profiling of resulting KPC mice by the B6 panel (Jackson Laboratories) confirmed 129S1/SvImJ with average match of 84.2%, 129S4SvJae with average match of 83.8%, B6N with average match of 65.7% and B6J, with average match of 65.1%. 2) the KPC Genetically engineered mouse-derived orthotopic allografts (GDA) mouse model (Hingorani et al., Cancer Cell 7, 469-483 (2005); Li et al., Comput Struct Biotechnol J 17, 498-506 (2019)). Mouse PDAC cells were established from KPC mouse pancreatic tumor tissues, followed by orthotopically injecting 1×10^6 mouse PDAC cells in 50 μL Matrigel (356231, Coaning) into the pancreas of female 8 week-old syngeneic immunocompetent C57BL/6 mice (Jackson Laboratories). 3) PDAC Patient-derived Tumor orthotopic xenografted (PDTX) mouse model (Gilles et al., Clin Cancer Res 24, 1734-1747 (2018); Rubio-Viqueira et al., Clin Cancer Res 12, 4652-4661 (2006)). PDAC PDX tumors were obtained from Dr. Muthuswamy and Dr. Hidalgo and divided into 4×2 mm pieces, followed by xenografting orthotopically into the pancreas of female 8-week-old immunodeficient NOD.Cg-Prkdc^scid Il12rg^tm1Wjl/SzJ (NOD scid gamma; NSG) mice (Jackson Laboratories). 4) PDAC Patient-derived Organoid and CAFs orthotopic xenograft (PDOX) mouse model (Dantes et al., JCI Insight 5, 137809 (2020); (Koikawa et al., Cancer letters 425, 65-77 (2018)). 5×10^4 patient derived PDAC organoids and 5×10^4 patient derived CAFs in 50 μL of Matrigel were injected orthotopically into the pancreas of female 8 week-old immunodeficient NSG mice (Jackson Laboratories).
Briefly, all mice were randomly selected to receive treatments groups. Tumor sizes were measured by weekly palpation with electronic caliper or ultrasound, and when tumors were reached >0.5 cm, the treatment was started. Briefly, animals were placed under general anesthesia with 2%-3% isoflurane once a week. Under general anesthesia, the abdominal wall became very flaccid, and the muscle tone of the mouse was very low. The mouse was scuffed with the left hand to allow for palpation and measurement with the right hand. This allowed to detect the firm pancreatic mass by palpation, and to determine its size by electronic caliper measurements. […] In the GDA model and PDX models, palpable tumors predictably were detectable within 4-7 days post implantation. […] When the tumor by palpation after age 12 weeks could not be detected, the mice were monitored by ultrasound. Once the maximum length >0.5 cm tumor was detected, the mice were randomized to treatment, and then followed tumor growth by electronic caliper measurement. To validate the external caliper measurements, the tumor size was measured prior to euthanization of the mice and then measured the actual tumor size upon necropsy to ascertain concordance. […]

The target in assay [2] is Pin1 (Homo sapiens, UniProt Q13526). Put plainly: Immunoblotting for Pin1 and substrate oncoproteins in PDAC cells. It is filed as cell-based. Further details: endogenous in cells; host or cells: primary human patient-derived PDAC cells (PDAC1, PDAC2). Conditions: 72 hrs. The procedure:
Cultured cells were lysed in RIPA buffer (50 mM Tris-HCl, pH 7.2, 150 mM NaCl, 1% NP40, 0.1% sodium dodecyl sulfate (SDS), 0.25% Na-deoxycholate) with freshly added phosphatase inhibitors containing 5 mM NaF and 0.2 mM sodium orthovanadate (NA3VO4), and proteinase inhibitors containing 2 μg/mL Aprotinin, 2 μg/mL Leupeptin, 2 μg/mL Pepstatin A, 1 mM DTT (dithiothreitol), 0.5 mM 4-(2-aminoethyl)-benzenesulfonyl fluoride (AEBSF), and 20 mM Chymotrypsin, and then mixed with the SDS sample buffer and loaded onto a gel after boiling for 10 minutes at 95° C. The proteins were resolved by polyacrylamide gel electrophoresis and transferred to PVDF membrane. The transferred membrane was washed three times with Tris-buffered saline containing 0.1% Tween 20 (TBST). After blocking with TBST containing 5% milk or 3% bovine serum albumin (BSA) for 1 h room temperature, the membrane was incubated with the appropriate primary antibody (diluted 1:500-1:10000) in 5% milk or 3% BSA-containing TBST at 4° C. overnight. After incubation with the primary antibody, the membrane was washed three times with TBST for a total of 30 min followed by incubation with horseradish peroxidase conjugated goat anti-rabbit or anti-mouse IgG (diluted 1:5000) for 1 h at room temperature. After three extensive washes with TBST for a total of 30 min, the immunoblots were visualized by enhanced chemi-luminescence. Immunoblotting results were quantified using ImageJ (NIH).

Pin1, sequence (Q13526 whole entry): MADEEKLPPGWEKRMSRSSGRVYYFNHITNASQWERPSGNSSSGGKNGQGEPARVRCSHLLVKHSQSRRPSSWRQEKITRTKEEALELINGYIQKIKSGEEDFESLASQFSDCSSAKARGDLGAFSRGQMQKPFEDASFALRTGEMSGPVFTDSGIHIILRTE

For `Nc1ccn([C@@H]2O[C@H](CO)[C@@H](O)C2(F)F)c(=O)n1` [GEM, gemcitabine, reference compound], the Median survival in assay [1] (PDTX mice, FIG. 8M, GEM 20 mg/kg, n=6, vehicle 36 days) was determined as 42.5 days.

Turning to `CC(C)(C)CN(C(=O)CCl)C1CCS(=O)(=O)C1` (centres unmarked) [Pin1i−2, sulfopin], in assay [1] (PDTX mice, 4 weeks), the “CAF activation (IF for αSMA or PDGFRα)” value is “significantly reduced” and the “collagen deposition (Sirius Red staining)” value is recorded as “significantly reduced”. For the same compound, the tumor growth entry in assay [1] (overt tumor-bearing PDTX mice, 4 weeks) is reported as “significantly reduced tumor growth”. In addition, the “Pin1 and its substrate oncoproteins (IB)” value in assay [2] is “ablate Pin1”.
